The results in this text go back to patent US20090012595A1, “Therapeutic Drug-Eluting Endoluminal Covering” (priority 2003, published 2009).

This data set can be described thus: Paclitaxel release from films into octanol/PBS or octanol/water, 232 nm. The data set is classed as physicochemical. The settings on record: PBS versus water, 0, 4 and 72 hours, 37° C., continuous shaking.

Description: Paclitaxel release—Small samples (circular discs, 8 mm) of the Paclitaxel films were placed in a solution of octanol and phosphate buffered saline (PBS) or water at a proportion of 5 ml Octanol and 10 ml PBS (or water). The solution, including the film disc, was shaken continuously at 37° C. for several days. The amount of Paclitaxel in the octanol phase of the solution was measured using a spectrophotometer at 232 nm. Measurements were carried out periodically and the amount of drug released was normalized to baseline values for control films containing no drug.

For `CC(=O)O[C@H]1C(=O)[C@@]2(C)[C@H]([C@H](OC(=O)c3ccccc3)[C@]3(O)C[C@H](OC(=O)[C@H](O)[C@@H](NC(=O)c4ccccc4)c4ccccc4)C(C)=C1C3(C)C)[C@]1(OC(C)=O)CO[C@@H]1C[C@@H]2O` [paclitaxel], the “Profile of drug release from films” value is “significantly faster than in water”.
